# Laboratory results: patent US20260055079A1, “PHTHALAZINONE COMPOUNDS AS PARP7 INHIBITORS” (AZKARRA THERAPEUTICS, INC., priority 2022, published 2026)
# Like-named read-outs stand apart in the source and are kept apart here.
# Key:
# [1] = test system: NCI-H1373 (human lung adenocarcinoma) cells; test: Cell proliferation assay (CellTiter-Glo), NCI-H1373; format: cell-based; conditions: read-out: NCI-H1373 GI50
# [2] = test system: CT26 (mouse colon adenocarcinoma) cells; test: Cell proliferation assay (CellTiter-Glo), CT26; format: cell-based; conditions: 6 days
# [3] = target: His-GST-PARP7 (Homo sapiens (Human), UniProt Q7Z3E1); test: PARP7 biochemical assay; conditions: read-out: PARP7 IC50
# [4] = test system: HARA (human lung squamous cell carcinoma) cells; test: Cell proliferation assay (CellTiter-Glo), HARA; format: cell-based; conditions: read-out: HARA GI50
# [5] = target: PARP2 (Homo sapiens (Human), UniProt Q9UGN5); test: PARP2 biochemical assay
# [6] = Homo sapiens, NCI-H1373, 144 h, 6 days, CellTiter-Glo
# [7] = Homo sapiens, 144 h, 6 days, CellTiter-Glo
# His-GST-PARP7, sequence (Q7Z3E1 whole entry): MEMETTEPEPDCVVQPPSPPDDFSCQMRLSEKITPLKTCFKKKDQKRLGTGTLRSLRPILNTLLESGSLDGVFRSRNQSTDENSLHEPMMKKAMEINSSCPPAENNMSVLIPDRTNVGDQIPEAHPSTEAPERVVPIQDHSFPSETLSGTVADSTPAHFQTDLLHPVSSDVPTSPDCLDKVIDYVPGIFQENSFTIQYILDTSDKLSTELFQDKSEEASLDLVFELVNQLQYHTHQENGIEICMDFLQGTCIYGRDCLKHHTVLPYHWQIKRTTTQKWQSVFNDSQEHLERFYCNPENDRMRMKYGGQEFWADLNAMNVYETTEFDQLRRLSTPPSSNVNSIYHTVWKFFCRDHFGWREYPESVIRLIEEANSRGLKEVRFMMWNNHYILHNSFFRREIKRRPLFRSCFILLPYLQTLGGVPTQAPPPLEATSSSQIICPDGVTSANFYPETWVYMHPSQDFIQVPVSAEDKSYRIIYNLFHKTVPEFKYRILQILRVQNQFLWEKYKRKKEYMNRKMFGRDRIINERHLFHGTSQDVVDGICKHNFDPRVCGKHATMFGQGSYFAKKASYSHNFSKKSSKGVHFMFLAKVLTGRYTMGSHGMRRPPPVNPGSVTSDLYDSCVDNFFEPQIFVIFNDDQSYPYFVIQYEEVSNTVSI
# PARP2, sequence (Q9UGN5 whole entry): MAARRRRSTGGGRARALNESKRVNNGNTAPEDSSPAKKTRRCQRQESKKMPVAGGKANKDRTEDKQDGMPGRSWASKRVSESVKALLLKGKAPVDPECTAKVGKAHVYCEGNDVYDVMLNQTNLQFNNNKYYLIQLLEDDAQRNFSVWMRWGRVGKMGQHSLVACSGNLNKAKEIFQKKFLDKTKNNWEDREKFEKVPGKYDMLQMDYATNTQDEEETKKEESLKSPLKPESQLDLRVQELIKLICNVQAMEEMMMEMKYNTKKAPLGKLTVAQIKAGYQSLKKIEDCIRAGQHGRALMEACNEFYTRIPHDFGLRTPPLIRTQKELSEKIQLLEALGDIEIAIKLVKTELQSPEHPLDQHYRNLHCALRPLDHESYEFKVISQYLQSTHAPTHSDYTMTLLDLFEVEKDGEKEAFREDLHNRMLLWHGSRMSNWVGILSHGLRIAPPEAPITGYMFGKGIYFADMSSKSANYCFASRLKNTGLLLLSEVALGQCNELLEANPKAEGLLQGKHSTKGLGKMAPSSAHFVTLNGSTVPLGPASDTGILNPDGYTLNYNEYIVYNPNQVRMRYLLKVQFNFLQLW
Compound,"GI50 ([1]; 6 days, CellTiter-Glo) [nM]",GI50 [2] [nM],IC50 [3] [nM],"GI50 ([4]; 6 days, CellTiter-Glo) [nM]","GI50 [1, 6] [nM]","GI50 ([2]; Mus musculus, CT26, 144 h) [nM]","GI50 [4, 7] [nM]","GI50 ([1]; Homo sapiens, NCI-H1373, 144 h) [nM]",IC50 ([5]; read-out: PARP2 IC50) [nM],"GI50 ([4]; Homo sapiens, 144 h) [nM]",IC50 [5] [nM]
"6-Cyclobutoxy-4-(4-fluoro-3-(2-(hydroxymethyl)-4,5,6,7-tetrahydropyrazolo[1,5-a]pyrazine-5-carbonyl)benzyl)phthalazin-1(2H)-one [Example 168]",> 5000,> 5000,100 to 500,> 5000,–,–,–,–,–,–,–
"N#Cc1ccc(N2CCN(C(=O)c3cc(Cc4n[nH]c(=O)c5ccc(OC6CCC6)cc45)ccc3F)[C@@H]3C[C@@H]32)nc1 (stereo in doubt) [Example 150, 6-(5-(5-((7-cyclobutoxy-4-oxo-3,4-dihydrophthalazin-1-yl)methyl)-2-fluorobenzoyl)-2,5-diazabicyclo[4.1.0]heptan-2-yl)nicotinonitrile]",–,–,< 50,–,100 to 1000,1000 to 5000,1000 to 5000,–,–,–,–
"C#CCOc1ccc2c(=O)[nH]nc(Cc3ccc(F)c(C(=O)N4CCN(c5ccc(C#N)cn5)CC4)c3)c2c1 [Example 3, 6-(4-(2-fluoro-5-((4-oxo-7-(prop-2-yn-1-yloxy)-3,4-dihydrophthalazin-1-yl)methyl)benzoyl)piperazin-1-yl)nicotinonitrile]",–,–,< 50,–,–,–,–,< 100,< 50,1000 to 5000,–
"COc1ccc2c(=O)[nH]nc(Cc3cccc(C(=O)N4CCN(c5ccc(C#N)cn5)CC4)c3)c2c1 [Example 4, 6-(4-(3-((7-Methoxy-4-oxo-3,4-dihydrophthalazin-1-yl)methyl)benzoyl)piperazin-1-yl)nicotinonitrile]",–,–,< 50,–,< 100,100 to 1000,1000 to 5000,–,–,–,–
"N#Cc1ccc(N2CCN(C(=O)c3cc(Cc4n[nH]c(=O)c5ccc(OC6CCC6)cc45)ccc3F)CC2)nc1 [Example 14, 6-(4-(5-((7-Cyclobutoxy-4-oxo-3,4-dihydrophthalazin-1-yl)methyl)-2-fluorobenzoyl)piperazin-1-yl)nicotinonitrile]",–,–,< 50,–,–,–,–,< 100,–,1000 to 5000,500 to 2000
"N#Cc1ccc(N2CCN(C(=O)c3cc(Cc4n[nH]c(=O)c5ccc(OC6CC(F)(F)C6)cc45)ccc3F)CC2)nc1 [Example 51, 6-(4-(5-((7-(3,3-Difluorocyclobutoxy)-4-oxo-3,4-dihydrophthalazin-1-yl)methyl)-2-fluorobenzoyl)piperazin-1-yl)nicotinonitrile]",–,–,< 50,–,< 100,1000 to 5000,> 5000,–,–,–,–
"N#Cc1ccc(N2CCN(C(=O)c3cc(Cc4n[nH]c(=O)c5ccc(S(=O)(=O)C6CCC6)cc45)ccc3F)CC2)nc1 [Example 53, 6-(4-(5-((7-(cyclobutylsulfonyl)-4-oxo-3,4-dihydrophthalazin-1-yl)methyl)-2-fluorobenzoyl)piperazin-1-yl)nicotinonitrile]",–,–,100 to 500,–,> 5000,> 5000,> 5000,–,–,–,–
"CC#Cc1ccc2c(=O)[nH]nc(Cc3ccc(F)c(C(=O)N4CCN(c5ccc(C#N)cn5)CC4)c3)c2c1OC [Example 81, 6-(4-(2-Fluoro-5-((8-methoxy-4-oxo-7-(prop-1-yn-1-yl)-3,4-dihydrophthalazin-1-yl)methyl)benzoyl)piperazin-1-yl)nicotinonitrile]",–,–,< 50,–,< 100,< 100,100 to 1000,–,–,–,–
"COc1cc2c(Cc3ccc(F)c(C(=O)N4CCN(c5ccc(C#N)cn5)CC4)c3)n[nH]c(=O)c2cn1 [Example 91, 6-(4-(2-fluoro-5-((7-methoxy-4-oxo-3,4-dihydropyrido[4,3-d]pyridazin-1-yl)methyl)benzoyl)piperazin-1-yl)nicotinonitrile]",–,–,< 50,–,1000 to 5000,> 5000,> 5000,–,–,–,–
"N#Cc1ccc(N2CCN(C(=O)c3cc(Cc4n[nH]c(=O)c5c(C(F)(F)F)cc(OC6CCC6)cc45)ccc3F)CC2)nc1 [Example 93, 6-(4-(5-((7-Cyclobutoxy-4-oxo-5-(trifluoromethyl)-3,4-dihydrophthalazin-1-yl)methyl)-2-fluorobenzoyl)piperazin-1-yl)nicotinonitrile]",–,–,< 50,–,< 100,1000 to 5000,1000 to 5000,–,–,–,–
"N#Cc1ccc(N2CCCN(C(=O)c3cc(Cc4n[nH]c(=O)c5ccc(OC6CCC6)cc45)ccc3F)CC2)nc1 [Example 94, 6-(4-(5-((7-Cyclobutoxy-4-oxo-3,4-dihydrophthalazin-1-yl)methyl)-2-fluorobenzoyl)-1,4-diazepan-1-yl)nicotinonitrile]",–,–,< 50,–,< 100,1000 to 5000,1000 to 5000,–,–,–,–
"COc1ccnc(N2CCN(C(=O)c3cc(Cc4n[nH]c(=O)c5ccc(OC6CCC6)cc45)ccc3F)CC2)c1 [Example 128, 6-cyclobutoxy-4-(4-fluoro-3-(4-(4-methoxypyridin-2-yl)piperazine-1-carbonyl)benzyl)phthalazin-1(2H)-one]",–,–,< 50,–,100 to 1000,1000 to 5000,1000 to 5000,–,–,–,–
"N#Cc1ccc(N2CCN(C(=O)c3cc(Cc4n[nH]c(=O)c5ccc(OC6CCC6)cc45)ccc3F)CC2)nc1C(F)(F)F [Example 135, 6-(4-(5-((7-cyclobutoxy-4-oxo-3,4-dihydrophthalazin-1-yl)methyl)-2-fluorobenzoyl)piperazin-1-yl)-2-(trifluoromethyl)nicotinonitrile]",–,–,50 to 100,–,100 to 1000,> 5000,> 5000,–,–,–,–
"Cc1cc(C#N)cnc1N1CCN(C(=O)c2cc(Cc3n[nH]c(=O)c4ccc(OC5CCC5)cc34)ccc2F)CC1 [Example 138, 6-(4-(5-((7-cyclobutoxy-4-oxo-3,4-dihydrophthalazin-1-yl)methyl)-2-fluorobenzoyl)piperazin-1-yl)-5-methylnicotinonitrile]",–,–,< 50,–,100 to 1000,> 5000,1000 to 5000,–,–,–,–
"N#Cc1ccc(-c2nnc3n2CCN(C(=O)c2cc(Cc4n[nH]c(=O)c5ccc(OC6CCC6)cc45)ccc2F)C3)nc1 [Example 139, 6-(7-(5-((7-cyclobutoxy-4-oxo-3,4-dihydrophthalazin-1-yl)methyl)-2-fluorobenzoyl)-5,6,7,8-tetrahydro-[1,2,4]triazolo[4,3-a]pyrazin-3-yl)nicotinonitrile]",–,–,< 50,–,100 to 1000,> 5000,1000 to 5000,–,–,–,–
"N#Cc1ccc(N2CC3(CN(C(=O)c4cc(Cc5n[nH]c(=O)c6ccc(OC7CCC7)cc56)ccc4F)C3)C2)nc1 [Example 148, 6-(6-(5-((7-cyclobutoxy-4-oxo-3,4-dihydrophthalazin-1-yl)methyl)-2-fluorobenzoyl)-2,6-diazaspiro[3.3]heptan-2-yl)nicotinonitrile]",–,–,500 to 2000,–,> 5000,> 5000,> 5000,–,–,–,–
"N#Cc1ccc(N2CCCC23CN(C(=O)c2cc(Cc4n[nH]c(=O)c5ccc(OC6CCC6)cc45)ccc2F)C3)nc1 [Example 149, 6-(2-(5-((7-cyclobutoxy-4-oxo-3,4-dihydrophthalazin-1-yl)methyl)-2-fluorobenzoyl)-2,5-diazaspiro[3.4]octan-5-yl)nicotinonitrile]",–,–,500 to 2000,–,> 5000,> 5000,> 5000,–,–,–,–
"N#Cc1cnc(N2CCN(C(=O)c3cc(Cc4n[nH]c(=O)c5ccc(OC6CCC6)cc45)ccc3F)CC2)nc1 [Example 154, 2-(4-(5-((7-cyclobutoxy-4-oxo-3,4-dihydrophthalazin-1-yl)methyl)-2-fluorobenzoyl)piperazin-1-yl)pyrimidine-5-carbonitrile]",–,–,< 50,–,< 100,1000 to 5000,1000 to 5000,–,–,–,–
"O=C(c1cc(Cc2n[nH]c(=O)c3ccc(OC4CCC4)cc23)ccc1F)N1CCN(c2cc(C(F)(F)F)ccn2)CC1 [Example 156, 6-cyclobutoxy-4-(4-fluoro-3-(4-(4-(trifluoromethyl)pyridin-2-yl)piperazine-1-carbonyl)benzyl)phthalazin-1(2H)-one]",–,–,< 50,–,100 to 1000,> 5000,1000 to 5000,–,–,–,–
"O=C(c1cc(Cc2n[nH]c(=O)c3ccc(OC4CCC4)cc23)ccc1F)N1CCN(c2ncc(C(F)F)cn2)CC1 [Example 157, 6-Cyclobutoxy-4-(3-(4-(5-(difluoromethyl)pyrimidin-2-yl)piperazine-1-carbonyl)-4-fluorobenzyl)phthalazin-1(2H)-one]",–,–,< 50,–,< 100,1000 to 5000,1000 to 5000,–,–,–,–
"O=C(c1cc(Cc2n[nH]c(=O)c3ccc(OC4CCC4)cc23)ccc1F)N1CCN(c2ccc(C(F)(F)F)nn2)CC1 [Example 158, 6-cyclobutoxy-4-(4-fluoro-3-(4-(6-(trifluoromethyl)pyridazin-3-yl)piperazine-1-carbonyl)benzyl)phthalazin-1(2H)-one]",–,–,< 50,–,1000 to 5000,1000 to 5000,> 5000,–,–,–,–
"O=C(c1cc(Cc2n[nH]c(=O)c3ccc(OC4CCC4)cc23)ccc1F)N1CCN(c2ccc(C(F)(F)F)nc2)CC1 [Example 159, 6-Cyclobutoxy-4-(4-fluoro-3-(4-(6-(trifluoromethyl)pyridin-3-yl)piperazine-1-carbonyl)benzyl)phthalazin-1(2H)-one]",–,–,< 50,–,100 to 1000,> 5000,> 5000,–,–,–,–
"N#Cc1ccc(N2CCN(C(=O)c3cc(Br)cc(Cc4n[nH]c(=O)c5ccc(OC6CCC6)cc45)c3)CC2)nc1 [Example 178, 6-(4-(3-Bromo-5-((7-cyclobutoxy-4-oxo-3,4-dihydrophthalazin-1-yl)methyl)benzoyl)piperazin-1-yl)nicotinonitrile]",–,–,< 50,–,100 to 1000,> 5000,1000 to 5000,–,–,–,–
